Species: Ovis aries
Assay: Inhibition of sheep brain tubulin polymerization at 100 uM by DAPI staining-based fluorimetric method relative to control
Details: not given

Compound | inhibition [%]
COc1ccc(CN2c3ccccc3Sc3ccccc32)c(F)c1 | 7

System: not listed separately
Assay: Cytotoxicity against human CCRF-CEM cells assessed as growth inhibition at 10 uM after 48 hrs by SRB assay relative to control
Format: functional
Details: read-out: GI

Compound | inhibition of growth at 10 µM [%]
COc1ccc(CN2c3ccccc3Sc3ccccc32)c(F)c1 | 93

System: not listed separately
Assay: Cytotoxicity against human HL-60(TB) cells assessed as growth inhibition at 10 uM after 48 hrs by SRB assay relative to control
Format: functional
Details: HL-60, 48 h, read-out: GI

Compound | inhibition of growth at 10 µM [%]
COc1ccc(CN2c3ccccc3Sc3ccccc32)c(F)c1 | 100

System: not listed separately
Assay: Cytotoxicity against human MOLT4 cells assessed as growth inhibition at 10 uM after 48 hrs by SRB assay relative to control
Format: functional
Details: MOLT-4, 48 h, read-out: GI

Compound | inhibition of growth at 10 µM [%]
COc1ccc(CN2c3ccccc3Sc3ccccc32)c(F)c1 | 77

System: not listed separately
Assay: Cytotoxicity against human SR cells assessed as growth inhibition at 10 uM after 48 hrs by SRB assay relative to control
Format: functional
Details: read-out: GI

Compound | inhibition of growth at 10 µM [%]
COc1ccc(CN2c3ccccc3Sc3ccccc32)c(F)c1 | 88

System: not listed separately
Assay: Cytotoxicity against human A549 cells assessed as growth inhibition at 10 uM after 48 hrs by SRB assay relative to control
Format: functional
Details: A549, 48 h, read-out: GI

Compound | inhibition of growth at 10 µM [%]
COc1ccc(CN2c3ccccc3Sc3ccccc32)c(F)c1 | 66

System: not listed separately
Assay: Cytotoxicity against human EKVX cells assessed as growth inhibition at 10 uM after 48 hrs by SRB assay relative to control
Format: functional
Details: read-out: GI

Compound | inhibition of growth at 10 µM [%]
COc1ccc(CN2c3ccccc3Sc3ccccc32)c(F)c1 | 49

System: not listed separately
Assay: Cytotoxicity against human HOP62 cells assessed as growth inhibition at 10 uM after 48 hrs by SRB assay relative to control
Format: functional
Details: HOP-62, 48 h, read-out: GI

Compound | inhibition of growth at 10 µM [%]
COc1ccc(CN2c3ccccc3Sc3ccccc32)c(F)c1 | 73

System: not listed separately
Assay: Cytotoxicity against human HOP92 cells assessed as growth inhibition at 10 uM after 48 hrs by SRB assay relative to control
Format: functional
Details: HOP-92, 48 h, read-out: GI

Compound | inhibition of growth at 10 µM [%]
COc1ccc(CN2c3ccccc3Sc3ccccc32)c(F)c1 | 67

System: not listed separately
Assay: Cytotoxicity against human NCI-H226 cells assessed as growth inhibition at 10 uM after 48 hrs by SRB assay relative to control
Format: functional
Details: NCI-H226, 48 h, read-out: GI

Compound | inhibition of growth at 10 µM [%]
COc1ccc(CN2c3ccccc3Sc3ccccc32)c(F)c1 | 44

System: not listed separately
Assay: Cytotoxicity against human NCI-H23 cells assessed as growth inhibition at 10 uM after 48 hrs by SRB assay relative to control
Format: functional
Details: NCI-H23, 48 h, read-out: GI

Compound | inhibition of growth at 10 µM [%]
COc1ccc(CN2c3ccccc3Sc3ccccc32)c(F)c1 | 50

System: not listed separately
Assay: Cytotoxicity against human NCI-H322M cells assessed as growth inhibition at 10 uM after 48 hrs by SRB assay relative to control
Format: functional
Details: read-out: GI

Compound | inhibition of growth at 10 µM [%]
COc1ccc(CN2c3ccccc3Sc3ccccc32)c(F)c1 | 55

System: not listed separately
Assay: Cytotoxicity against human NCI-H460 cells assessed as growth inhibition at 10 uM after 48 hrs by SRB assay relative to control
Format: functional
Details: NCI-H460, 48 h, read-out: GI

Compound | inhibition of growth at 10 µM [%]
COc1ccc(CN2c3ccccc3Sc3ccccc32)c(F)c1 | 89

System: not listed separately
Assay: Cytotoxicity against human HCT116 cells assessed as growth inhibition at 10 uM after 48 hrs by SRB assay relative to control
Format: functional
Details: HCT-116, 48 h, read-out: GI

Compound | inhibition of growth at 10 µM [%]
COc1ccc(CN2c3ccccc3Sc3ccccc32)c(F)c1 | 84

System: not listed separately
Assay: Cytotoxicity against human KM12 cells assessed as growth inhibition at 10 uM after 48 hrs by SRB assay relative to control
Format: functional
Details: KM12, 48 h, read-out: GI

Compound | inhibition of growth at 10 µM [%]
COc1ccc(CN2c3ccccc3Sc3ccccc32)c(F)c1 | 74

System: not listed separately
Assay: Cytotoxicity against human SF295 cells assessed as growth inhibition at 10 uM after 48 hrs by SRB assay relative to control
Format: functional
Details: SF-295, 48 h, read-out: GI

Compound | inhibition of growth at 10 µM [%]
COc1ccc(CN2c3ccccc3Sc3ccccc32)c(F)c1 | 92

System: not listed separately
Assay: Cytotoxicity against human SF539 cells assessed as growth inhibition at 10 uM after 48 hrs by SRB assay relative to control
Format: functional
Details: SF-539, 48 h, read-out: GI

Compound | inhibition of growth at 10 µM [%]
COc1ccc(CN2c3ccccc3Sc3ccccc32)c(F)c1 | 100

System: not listed separately
Assay: Cytotoxicity against human SNB75 cells assessed as growth inhibition at 10 uM after 48 hrs by SRB assay relative to control
Format: functional
Details: SNB-75, 48 h, read-out: GI

Compound | inhibition of growth at 10 µM [%]
COc1ccc(CN2c3ccccc3Sc3ccccc32)c(F)c1 | 100

System: not listed separately
Assay: Cytotoxicity against human U251 cells assessed as growth inhibition at 10 uM after 48 hrs by SRB assay relative to control
Format: functional
Details: U-251, 48 h, read-out: GI

Compound | inhibition of growth at 10 µM [%]
COc1ccc(CN2c3ccccc3Sc3ccccc32)c(F)c1 | 70

System: not listed separately
Assay: Cytotoxicity against human MALME-3M cells assessed as growth inhibition at 10 uM after 48 hrs by SRB assay relative to control
Format: functional
Details: read-out: GI

Compound | inhibition of growth at 10 µM [%]
COc1ccc(CN2c3ccccc3Sc3ccccc32)c(F)c1 | 43

System: not listed separately
Assay: Cytotoxicity against human M14 cells assessed as growth inhibition at 10 uM after 48 hrs by SRB assay relative to control
Format: functional
Details: M14, 48 h, read-out: GI

Compound | inhibition of growth at 10 µM [%]
COc1ccc(CN2c3ccccc3Sc3ccccc32)c(F)c1 | 89

System: not listed separately
Assay: Cytotoxicity against human MDA-MB-435 cells assessed as growth inhibition at 10 uM after 48 hrs by SRB assay relative to control
Format: functional
Details: MDA-MB-435, 48 h, read-out: GI

Compound | inhibition of growth at 10 µM [%]
COc1ccc(CN2c3ccccc3Sc3ccccc32)c(F)c1 | 100

System: not listed separately
Assay: Cytotoxicity against human OVCAR3 cells assessed as growth inhibition at 10 uM after 48 hrs by SRB assay relative to control
Format: functional
Details: OVCAR-3, 48 h, read-out: GI

Compound | inhibition of growth at 10 µM [%]
COc1ccc(CN2c3ccccc3Sc3ccccc32)c(F)c1 | 100

System: not listed separately
Assay: Cytotoxicity against human NCI-ADR-RES cells assessed as growth inhibition at 10 uM after 48 hrs by SRB assay relative to control
Format: functional
Details: read-out: GI

Compound | inhibition of growth at 10 µM [%]
COc1ccc(CN2c3ccccc3Sc3ccccc32)c(F)c1 | 78

System: not listed separately
Assay: Cytotoxicity against human SKOV3 cells assessed as growth inhibition at 10 uM after 48 hrs by SRB assay relative to control
Format: functional
Details: SK-OV-3, 48 h, read-out: GI

Compound | inhibition of growth at 10 µM [%]
COc1ccc(CN2c3ccccc3Sc3ccccc32)c(F)c1 | 70

System: not listed separately
Assay: Cytotoxicity against human 786-0 cells assessed as growth inhibition at 10 uM after 48 hrs by SRB assay relative to control
Format: functional
Details: 786-0, 48 h, read-out: GI

Compound | inhibition of growth at 10 µM [%]
COc1ccc(CN2c3ccccc3Sc3ccccc32)c(F)c1 | 58

System: not listed separately
Assay: Cytotoxicity against human A498 cells assessed as growth inhibition at 10 uM after 48 hrs by SRB assay relative to control
Format: functional
Details: A498, 48 h, read-out: GI

Compound | inhibition of growth at 10 µM [%]
COc1ccc(CN2c3ccccc3Sc3ccccc32)c(F)c1 | 100

System: not listed separately
Assay: Cytotoxicity against human Caki1 cells assessed as growth inhibition at 10 uM after 48 hrs by SRB assay relative to control
Format: functional
Details: CAKI-1, 48 h, read-out: GI

Compound | inhibition of growth at 10 µM [%]
COc1ccc(CN2c3ccccc3Sc3ccccc32)c(F)c1 | 78

System: not listed separately
Assay: Cytotoxicity against human RXF393 cells assessed as growth inhibition at 10 uM after 48 hrs by SRB assay relative to control
Format: functional
Details: RXF 393, 48 h, read-out: GI

Compound | inhibition of growth at 10 µM [%]
COc1ccc(CN2c3ccccc3Sc3ccccc32)c(F)c1 | 99

System: not listed separately
Assay: Cytotoxicity against human TK10 cells assessed as growth inhibition at 10 uM after 48 hrs by SRB assay relative to control
Format: functional
Details: TK-10, 48 h, read-out: GI

Compound | inhibition of growth at 10 µM [%]
COc1ccc(CN2c3ccccc3Sc3ccccc32)c(F)c1 | 49

System: not listed separately
Assay: Cytotoxicity against human UO31 cells assessed as growth inhibition at 10 uM after 48 hrs by SRB assay relative to control
Format: functional
Details: UO-31, 48 h, read-out: GI

Compound | inhibition of growth at 10 µM [%]
COc1ccc(CN2c3ccccc3Sc3ccccc32)c(F)c1 | 57

System: not listed separately
Assay: Cytotoxicity against human PC3 cells assessed as growth inhibition at 10 uM after 48 hrs by SRB assay relative to control
Format: functional
Details: PC-3, 48 h, read-out: GI

Compound | inhibition of growth at 10 µM [%]
COc1ccc(CN2c3ccccc3Sc3ccccc32)c(F)c1 | 70

System: not listed separately
Assay: Cytotoxicity against human DU145 cells assessed as growth inhibition at 10 uM after 48 hrs by SRB assay relative to control
Format: functional
Details: DU-145, 48 h, read-out: GI

Compound | inhibition of growth at 10 µM [%]
COc1ccc(CN2c3ccccc3Sc3ccccc32)c(F)c1 | 79

System: not listed separately
Assay: Cytotoxicity against human MCF7 cells assessed as growth inhibition at 10 uM after 48 hrs by SRB assay relative to control
Format: functional
Details: MCF7, 48 h, read-out: GI

Compound | inhibition of growth at 10 µM [%]
COc1ccc(CN2c3ccccc3Sc3ccccc32)c(F)c1 | 77

System: not listed separately
Assay: Cytotoxicity against human MDA-MB-231 cells assessed as growth inhibition at 10 uM after 48 hrs by SRB assay relative to control
Format: functional
Details: MDA-MB-231, 48 h, read-out: GI

Compound | inhibition of growth at 10 µM [%]
COc1ccc(CN2c3ccccc3Sc3ccccc32)c(F)c1 | 40

System: not listed separately
Assay: Cytotoxicity against human BT549 cells assessed as growth inhibition at 10 uM after 48 hrs by SRB assay relative to control
Format: functional
Details: BT-549, 48 h, read-out: GI

Compound | inhibition of growth at 10 µM [%]
COc1ccc(CN2c3ccccc3Sc3ccccc32)c(F)c1 | 47

System: not listed separately
Assay: Cytotoxicity against human T47D cells assessed as growth inhibition at 10 uM after 48 hrs by SRB assay relative to control
Format: functional
Details: read-out: GI

Compound | inhibition of growth at 10 µM [%]
COc1ccc(CN2c3ccccc3Sc3ccccc32)c(F)c1 | 88

System: not listed separately
Assay: Cytotoxicity against human MDA-MB-468 cells assessed as growth inhibition at 10 uM after 48 hrs by SRB assay relative to control
Format: functional
Details: MDA-MB-468, 48 h, read-out: GI

Compound | inhibition of growth at 10 µM [%]
COc1ccc(CN2c3ccccc3Sc3ccccc32)c(F)c1 | 98

Source: ChEMBL document CHEMBL3862012, “Methylene versus carbonyl bridge in the structure of new tubulin polymerization inhibitors with tricyclic A-rings” (Bioorg Med Chem, 2016)
